Measurements published in patent US20250002467A1, “DESIGN, SYNTHESIS AND MECHANISMS OF ANTICANCER ACTIVITY OF NEW ACETYLATED 5-AMINOSALICYLATE-THIAZOLINONE HYBRID DERIVATIVES” (University of Sharjah, priority 2023, published 2025).

Experiments:
U373 = experiment: SRB cytotoxicity assay, U373; format: cell-based
Excerpt: (§1) Eight different cancer cell lines were acquired from the Radiobiology and Experimental Radio Oncology lab, University Medical Center, Hamburg University, Hamburg, Germany. MCF7, MDA-MB-231 (breast cancer), and A549 (lung cancer) cells were maintained in RPMI medium while HCT116 (colon cancer), HepG2 (liver cancer), U87, U373 (glioblastoma), and HeLa (cervical cancer) were maintained in DMEM supplemented with 10% FBS and 1% penicillin/streptomycin (Sigma Aldrich, Missouri, USA). Normal human fibroblast (F180) cells were maintained in DMEM supplemented with 15% FBS. Normal human mammary epithelial cell line (HME1) were maintained in DMEM/F-12 medium supplemented with 10% FBS. All incubations were done at 37° C. in a humidified atmosphere of 5% CO2. All cell lines were authenticated by short tandem repeat (STR) profiling. The CDK4 knockout cells (provided by Dr. Samrein Ahmed, University of Sharjah, United Arab Emirates) were generated by CRISPR-CAS9 technology and were maintained in DMEM supplemented with 10% FBS.
(§2) The cytotoxic effects of HH32 and HH33 compounds were evaluated at various concentrations ranging from 0.0001 to 100 μM by sulphrhodamine-B (SRB) assay as described previously. The anti-proliferative activity was expressed as growth inhibitory concentration (IC50) values, which were calculated by the sigmoidal dose-response curve fitting method using Graph pad prism 6 software (GraphPad Software, San Diego, CA, USA).

HeLa = experiment: SRB cytotoxicity assay, HeLa; format: cell-based
Excerpt: as §1, §2

MDA-MB-231 = experiment: SRB cytotoxicity assay, MDA-MB-231; format: cell-based
Excerpt: as §1, §2

MCF7 = experiment: SRB cytotoxicity assay, MCF7; format: cell-based
Excerpt: as §1, §2

A549 = experiment: SRB cytotoxicity assay, A549; format: cell-based
Excerpt: as §1, §2

F-180 = experiment: SRB cytotoxicity assay, normal fibroblast F-180; format: cell-based, human; details: F-180 normal fibroblast, mean ± SEM
Excerpt: as §1, §2

HepG2 = experiment: SRB cytotoxicity assay, HepG2; format: cell-based
Excerpt: as §1, §2

U87 = experiment: SRB cytotoxicity assay, U87; format: cell-based
Excerpt: as §1, §2

HME1 = experiment: SRB cytotoxicity assay, normal mammary epithelial HME1; format: cell-based, human; details: mean ± SEM
Excerpt: as §1, with “The CDK4 knockout cells (provided by Dr. Samrein Ahmed, University of Sharjah, United Arab Emirates) were generated by CRISPR-CAS9 technology and were maintained in DMEM supplemented with 10% FBS.” left out
as §2

HCT-116 = experiment: SRB cytotoxicity assay, HCT-116; format: cell-based
Excerpt: as §1, §2

COc1cccc2c1C(=O)c1c(O)c3c(c(O)c1C2=O)C[C@@](O)(C(=O)CO)C[C@@H]3O[C@H]1C[C@H](N)[C@H](O)[C@H](C)O1 [DOX, Doxorubicin, reference compound]
Selectivity index (U373; F180 versus U373): 0.33
Selectivity index (U373; HME1 versus U373): 1.3
IC50 (U373; Homo sapiens, U373 MG, U373, SRB, mean ± SEM): 880 ± 90 nM
Selectivity index (HeLa; F180 versus HeLa): 0.6
Selectivity index (HeLa; HME1 versus HeLa): 2.4
IC50 (HeLa; Homo sapiens, HeLa, SRB, mean ± SEM): 460 ± 460 nM
Selectivity index (MDA-MB-231; F180 versus MDA-MB-231): 0.64
Selectivity index (MDA-MB-231; HME1 versus MDA-MB-231): 2.5
IC50 (MDA-MB-231; Homo sapiens, MDA-MB-231, SRB, mean ± SEM): 450 ± 110 nM
Selectivity index (MCF7; F180 versus MCF7): 4.8
Selectivity index (MCF7; HME1 versus MCF7): 18.7
IC50 (MCF7; Homo sapiens, MCF7, SRB, mean ± SEM): 60 nM
Selectivity index (A549; F180 versus A549): 0.47
Selectivity index (A549; HME1 versus A549): 1.81
IC50 (A549; Homo sapiens, A549, SRB, mean ± SEM): 620 ± 590 nM
IC50 (F-180): 290 ± 370 nM
IC50 (F-180; listed as doxorubicin): < 1200 nM
Selectivity index (HepG2; F180 versus HepG2): 0.78
Selectivity index (HepG2; HME1 versus HepG2): 3.02
IC50 (HepG2; Homo sapiens, HepG2, SRB, mean ± SEM): 370 ± 120 nM
Selectivity index (U87; F180 versus U87): 2.9
Selectivity index (U87; HME1 versus U87): 11.2
IC50 (U87; Homo sapiens, U-87 MG, U87, SRB, mean ± SEM): 100 ± 90 nM
IC50 (HME1; HME1 normal epithelial): 1120 ± 190 nM
IC50 (HME1; Homo sapiens, HME1, HME1 normal epithelial): < 1200 nM
Selectivity index (HCT-116; F180 versus HCT116): 2.6
Selectivity index (HCT-116; HME1 versus HCT116): 10.2
IC50 (HCT-116; Homo sapiens, HCT-116, SRB, mean ± SEM): 110 nM
